Assay [1] has as its target Potassium channel subfamily K member 3 (Homo sapiens, UniProt O14649). In words: inhibition of human KCNK3 channel flux – CHO cells, FluxOR thallium flux, SAR follow-up (AID 652212). Type of assay: functional.
The nature of assay [2]: Counterscreen for antagonists of the human trace amine associated receptor 1 (hTAAR1): Fluorescence-based cell-based high throughput dose response assay to identify nonselective Ga16 antagonists. The assay is classed as functional.
Assay [3] in a line: Counterscreen for […] of the human trace amine associated receptor 1 (TAAR1): Fluorescence-based cell-based high throughput dose response assay to identify nonselective Ga16 agonists. Type of assay: functional. For orientation: A counterscreen serves to expose hits that act by an unwanted route or on another target.
In assay [4] the target is 26S proteasome non-ATPase regulatory subunit 14 (Homo sapiens, UniProt O00487). The assay can be described thus: inhibition of proteasome subunit RPN11 – biochemical, fluorescence polarization, uHTS hits, confirmation (AID 602368). The assay is classed as functional. A general note: Fluorescence polarisation rises when a labelled molecule tumbles more slowly, as on binding a larger partner.

Assay [5] has as its target 72 kDa type IV collagenase (Homo sapiens, UniProt P08253). The assay can be described thus: Dose Response validation of uHTS RPN11 inhibitor hits using a MMP-2 Fluorescence assay. Type of assay: functional.
Assay [6] has as its target Prothrombin (Bos taurus, UniProt P00735). The assay can be described thus: thrombin protease inhibitors – biochemical, fluorescence polarization, uHTS hits, dose response (AID 602369). The assay is classed as functional.
The target of assay [7] is Albumin (Bos taurus, UniProt P02769). In words: Counterscreen for inhibitors of T-cell receptor (TCR)-CD3 interaction: Fluorescence-based biochemical high throughput dose response assay to identify inhibitors of T-cell receptor (TCR)-CD3 interaction using a TAMRA-labeled BSA probe. Type of assay: functional.
Assay [8] addresses T1, RNA-binding protein pos-1 (Caenorhabditis elegans, UniProt G5EF15).
T1 sequence (G5EF15 whole entry): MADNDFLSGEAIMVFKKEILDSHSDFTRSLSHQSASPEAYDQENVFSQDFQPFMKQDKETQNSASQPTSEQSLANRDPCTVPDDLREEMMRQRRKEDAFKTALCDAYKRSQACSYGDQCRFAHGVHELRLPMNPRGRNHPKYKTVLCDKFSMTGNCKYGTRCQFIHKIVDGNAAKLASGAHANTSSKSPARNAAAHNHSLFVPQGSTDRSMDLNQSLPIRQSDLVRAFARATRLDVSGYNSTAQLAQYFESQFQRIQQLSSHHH
In words: disruptors of C. elegans POS-1 RNA interaction – biochemical, fluorescence polarization, dose response (AID 1964).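 Also: purified POS-1 fused to maltose binding protein made in E. coli; potency of compounds blocking POS-1 binding to fluorescent RNA.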

Assay [9] in a line: loss of viability in HepG2 cells – cell-based, CellTiter-Glo, cherry-picked, cytotoxicity control for Shn3 inhibitor project, dose response (AID 624134). The assay is classed as functional. (In general: Cellular ATP, detected with luciferase, serves as a proxy for viable cell number.)
Assay [10] in a line: non-specific 3'UTR reporter inhibition in Clone20-Shn3RL – cell-based, Renilla luciferase, cherry-picked, counter-screen for Shn3 inhibitor project, dose response (AID 624133). Type of assay: functional.
The nature of assay [11]: reduction of Shn3 3'UTR-driven luciferase in osteoblasts – cell-based, Clone20 osteoblasts, firefly luciferase, cherry-picked, dose response (AID 624132).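 Also: firefly luciferase luminescence from reporter carrying the Shn3 3'UTR in osteoblasts.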 The assay is classed as functional.
A short description of assay [12]: EF1alpha-driven Renilla reporter with control 3'UTR suppression – Clone20-Shn3RL cells, dual-Glo, cherry-pick, set 2, counter-screen for Shn3 3'UTR targeting project, dose response (AID 720724). Type of assay: functional, cell-based. Conditions: Dual-Go Shn3RL.
Assay [13] is described as follows: Shn3 transcript knock-down in Clone20 cells – cell-based, qPCR, cherry-pick, dose response (AID 743415). The assay is classed as functional.
Assay [14] can be described thus: cells. The assay is classed as functional, cell-based.
Assay [15] can be described thus: cells. Type of assay: functional, cell-based. The source holds these as a separate data set.
Assay [16] in a line: Shn3 3'UTR reporter signal decrease – cell-based, Clone20 osteoblasts, firefly luciferase, cherry-pick, set 2, Schnurri-3 inhibitor project, dose response (AID 720490).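 Also: actives lower the luminescence signal as inhibitors.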 Type of assay: functional.
A short description of assay [17]: cells.
Assay [18] deals with Major prion protein (Homo sapiens, UniProt P04156). Type of assay: functional, cell-based.
Assay [19] concerns the target fMet-Leu-Phe receptor (Homo sapiens, UniProt P21462). In words: formyl peptide receptor binders – dose response (AID 519). The assay is classed as functional.
In assay [20] the target is Cytochrome P450 3A4 (Homo sapiens, UniProt P08684).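 Also: CYP3A4 tested as one member of a cytochrome P450 panel screen.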
Assay [21] deals with INS1. The assay can be described thus: INS-1E survival protection against cytokine death – cell-based, luminescence, retest, dose response (AID 449756).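 Also: cell death triggered by IL-1 beta plus TNF-alpha plus IFN-gamma mixture; protective hits raise ATP signal compared with cytokine alone wells.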 The assay is classed as functional. The settings on record: Rattus norvegicus.
Assay [22] has as its target Nonstructural protein 1 (Influenza A virus, UniProt Q194T2). Type of assay: functional, Influenza A virus (A/California/07/2009(H1N1)).
A short description of assay [23]: OVCAR8 cell viability loss – plate reader, dry powder samples, PAX8 project, dose response (AID 743197). Type of assay: functional, cell-based. The settings on record: OVCAR-8.
The nature of assay [24]: A2780 cell killing – plate reader, dry powder samples, cytotoxicity control, dose response (AID 743046). Type of assay: functional, cell-based.
Assay [25] is described as follows: CMV-driven luciferase expression suppression in HEK293 – cell-based, luminescence, dry powder, counter-screen for Pax8 inhibitor project, dose response (AID 743020). The assay is classed as functional.
Assay [26] addresses Paired box protein Pax-8 (Homo sapiens, UniProt Q06710). In words: PAX8 transcriptional activity inhibition in RMG-I – RMG-I cells, luciferase, cherry-pick, dose response (AID 687027).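 Also: luciferase reporter driven by Pax8 target thyroperoxidase promoter measured by SteadyGlo luminescence.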 Type of assay: functional, cell-based.
Assay [27] can be described thus: P. falciparum Dd2 growth inhibitors, dose response, SYBR Green, cherry-picked samples (AID 1159567). Type of assay: functional, cell-based.
Assay [28] can be described thus: IGROV1 cell killing – plate reader, dry powder samples, PAX8 inhibitor project, dose response (AID 743043). The assay is classed as functional, cell-based. Conditions: IGROV-1.
A short description of assay [29]: OVCAR-3 cell viability loss – plate reader, dry powder samples, PAX8 inhibitor project, dose response (AID 743044). Type of assay: functional, cell-based.
Assay [30] addresses Galanin receptor type 3 (Homo sapiens, UniProt O60755). In words: Fluorescence-based cell-based primary high throughput dose response assay to identify antagonists of the Galanin Receptor 3 (GalR3). Type of assay: functional.
A short description of assay [31]: cells. Type of assay: functional, cell-based. The settings on record: HEK-CNG.

9 compounds from ChEMBL document CHEMBL1201862, “PubChem BioAssay data set” (2004) can be followed below.

Structures are written as SMILES. Activity calls are given as the source filed them.

What is called IC50 is the concentration that gives 50% inhibition. As usually defined, the EC50 is the concentration needed to bring the measured effect to its halfway point. As a reminder, the AC50 is the concentration at which the activity in the assay is half-maximal. One may read the Ki as the dissociation constant of the complex between target and ligand, obtained from inhibition or displacement.

With `COc1ccc(C(=O)Nc2cccc(NC(=O)c3ccccc3)c2)cc1`, the IC50 in [1] is 4.46 µM (active).

Regarding `CCCCC(=O)Nc1ccc(C(=O)Nc2ccc(S(=O)(=O)N3CCCC3)cc2)cc1`, the IC50 in assay [2] was > 29.9 µM (inactive). Moreover, in assay [3], the EC50 is > 29.9 µM (inactive).

On to `O=C1NC(=O)N(CCc2ccccc2)C(=O)/C1=C/NNC(=O)c1ccccc1O`, for which the IC50 in [4] is 63.5 µM (active); in [5], > 100 µM (inactive); in assay [6], 47.2 µM (active); in assay [7], > 94 µM (inactive). Moreover, the EC50 in [8] was 69.9 µM (active).

For `COc1cc(CN2CCc3ccccc3C2)ccc1O`, the AC50 in assay [9] is 24.9 µM (active); in [10], 5.64 µM (active); in assay [11], 0.912 µM (active); in assay [12] it was 2.93 µM (active); in assay [13], 3.71 µM (active); in assay [16] it was 2.65 µM (active). The IC50 in [14] was > 29.9 µM (inactive). For the same compound, in assay [15], the EC50 is > 29.9 µM (inactive).

On to `CSc1nc(O)c(C#N)c(-c2cccs2)n1`, for which the IC50 in assay [17] is > 138 µM (inactive).

In the case of `CSc1nc(-c2cccs2)c(C#N)c(=O)[nH]1`, the half-inhibitory concentration (IC50) in [18] is 3.22 µM (active).

In the case of `Nc1ccc(Nc2ccccc2)cc1`, in assay [19], the Ki was > 66.7 µM (inactive). The figures for the AC50 in assay [20] and in assay [21] were 20 µM (inconclusive) and 7.64 µM (active), respectively. Also, in assay [22], the IC50 was 45.3 µM (active).

As to `CN1c2ccc(-c3cccc(C#N)c3)cc2[C@H]2[C@H](CCN2S(=O)(=O)c2ccccc2F)[C@H]1CO`, the AC50 was 23.4 µM (active) in assay [23]; 38.1 µM (active) in assay [24]; 28.2 µM (active) in assay [25]; 4.87 µM (active) in assay [26]; 3.57 µM (active) in [27]; 33.3 µM (active) in assay [28]. The AC50 in assay [29] was 16.6 µM (active).

Take `COc1cccc(CN(C)C(=O)CNC(=O)c2ccc(-c3ccccc3)cc2)c1OC`: the IC50 in [30] was > 1.11 µM (active). For the same compound, the EC50 in assay [31] is > 29.9 µM (inactive).
